Assay results reported in publication PMC6017101, “In Silico and In Vitro Study of the Bromelain-Phytochemical Complex Inhibition of Phospholipase A2 (Pla2)” (Molecules : A Journal of Synthetic Chemistry and Natural …, 2018).

These molecules were tested against T1, porcine group IB phospholipase A2 (pG-IB); Pla2 (Sus scrofa, UniProt P00592) (assay: colorimetric phenol red assay, […] nm, lecithin hydrolysis; median-effect plot). Settings: read-out: Dm (mg/mL) ^a (converted).
T1 construct: gene PLA2G1B; commercial enzyme (Sigma-Aldrich); no tag stated
T1 sequence (P00592 23-146): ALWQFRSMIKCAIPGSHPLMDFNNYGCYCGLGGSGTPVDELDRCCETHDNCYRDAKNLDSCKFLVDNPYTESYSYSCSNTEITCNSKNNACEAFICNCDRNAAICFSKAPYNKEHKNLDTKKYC
Type: biochemical
For `O=c1cc(-c2ccc(O)c(-c3c(O)cc(O)c4c(=O)cc(-c5ccc(O)cc5)oc34)c2)oc2cc(O)cc(O)c12` [amenthoflavone], the IC50 was 200 µM.
In the case of `C[C@H]1[C@H](C)CC[C@]2(C(=O)O[C@@H]3O[C@H](CO[C@@H]4O[C@H](CO)[C@@H](O[C@@H]5O[C@@H](C)[C@H](O)[C@@H](O)[C@H]5O)[C@H](O)[C@H]4O)[C@@H](O)[C@H](O)[C@H]3O)CC[C@]3(C)C(=CC[C@@H]4[C@@]5(C)C[C@@H](O)[C@H](O)[C@@](C)(CO)[C@@H]5CC[C@]43C)[C@H]12` [asiaticoside], the IC50 is reported as 328 µM.
`C[C@@H]1CC[C@@]2(OC1)O[C@H]1C[C@H]3[C@@H]4CC=C5C[C@@H](O)CC[C@]5(C)[C@H]4CC[C@]3(C)[C@H]1[C@@H]2C` [diosgenin] was tested, and the IC50 was 2330 µM.
